Test results published in patent US20260077069A1, “COMBINATIONS OF CONTRAST AGENTS” (BAYER AKTIENGESELLSCHAFT, priority 2022, published 2026).
Like-named read-outs stand apart in the source and are kept apart here. Marks after values point to notes of the source that are not given here.

Experiments:
[1] = 1.5 T, 37° C., Invest Radiol. 2005, cited from earlier work; for r1 plasma: bovine plasma instead of human plasma
[2] = 37° C., from Robic et al. Invest Radiol. 2019, cited from earlier work
[3] = Relaxivity measurements at 1.41 T in water and human plasma; assay type: physicochemical; settings: 37° C., normalized to Gd
Procedure: Relaxivity measurements at 1.41 T were performed using a MiniSpec mq60 spectrometer (Bruker Analytik, Karlsruhe, Germany) operating at a resonance frequency of 60 MHz and a temperature of 37° C. The T1 relaxation times were determined using the standard inversion recovery (IR) method with a fixed relaxation delay of at least 5×T1. The variable inversion time (TI) was calculated automatically by the standard software of the MiniSpec mq60 (8 steps). The T2 measurements were performed by using a Carr-Purcell-Meiboom-Gill (CPMG) pulse sequence, applying a relaxation delay of at least 5×T1.
Each relaxivity measurement was performed using three different Gd concentrations (3 concentrations between 0.05 and 2 mM). The T1 and T2 relaxation times of the example compounds were measured in water and human plasma. Human plasma preparation: For each experiment fresh blood was taken from a volunteer using 10 mL citrate-tubes (Sarstedt S-Monovette 02.1067.001, 10 mL, Citrate). The 10 mL citrate-tubes were carefully inverted 10 times to mix blood and anticoagulant and centrifuged for 15 min at 1811 g at RT (Eppendorf, Centrifuge 5810R).
The relaxivities ri (where i=1, 2) were calculated based on the measured relaxation rates Ri in water and plasma:
where Ri(0) represent the relaxation rate of the respective solvent and CGd the concentration of the compound normalized to the Gadolinium. The Gadolinium concentrations of the investigated solutions were verified by Inductively Coupled Plasma Mass Spectrometry (ICP-MS Agilent 7500a, Waldbronn, Germany).

[4] = test system: freshly isolated rat hepatocytes; experiment: Uptake into freshly isolated rat hepatocytes; assay type: cell-based; settings: for Inhibition Rifampicine: uptake with OATP1B1/1B3 inhibitor Rifampicine 1:1, each 100 uM
Procedure: Freshly isolated rat hepatocytes were received as described before (Papeleu P. et al. (2006) Isolation of Rat Hepatocytes. In: Phillips I. R., Shephard E. A. (eds) Cytochrome P450 Protocols. Methods in Molecular Biology, vol 320. Humana Press, Totowa, NJ. https://doi.org/10.1385/1-59259-998-2:229). The rat hepatocytes were incubated (2.5·10^5 cells/well) for 2.5 to 4 h in collagen coated 24-well plates (Fa. Beckton Dickinson Biocoat, cell environments, Collagen I Cellware) in Williams E-medium (Fa. Sigma W1878) in an incubator (37° C., 5% CO2 and […]). After incubation the adherent hepatocytes were washed once with 37° C. Hepes carbonate transport buffer (500 μL/well). The test items and RC3 were prepared from stock solutions (180 to 500 mM concentration) in Hepes carbonate transport buffer at pH 7.4 to reach a final concentration of 100 μmol Gd/L. The specific uptake of the test item or RC3 into rat hepatocytes via OATP1B1 and OATP1B3 was challenged using a known OATP1B1/1B3 inhibitor (Rifampicine, Fa. Sigma R3501, test item and inhibitor 1:1 each 100 µM final concentration). The prepared rat hepatocyte plates were incubated with test solutions (500 μL/well) at 37° C. for 10 min using a thermoshaker (Fa. Grant Bio, PHMP). Triplicates were performed for each test item. After incubating the cells were washed once with cold PBS buffer (Fa. Gibco, Dulbeccos PBS (+)). After washing the intact hepatocytes were lysed by addition of 500 μL cold 0.01% Triton-X 100 in Millipore water for 1 h. The strongly hypo-osmolar water led to cell membrane rupture and the release of the intracellular Gd-compound. After 1 h 500 μL of 10 nM Terbium ICP-MS standard was added in 2% nitric acid and 0.01% Triton 100 before the Gadolinium concentrations in the lysate were measured using ICP-MS (Agilent 8900, singleQuad, integr. Time 0.3 s, no gas, 5 replicates, Gd m/z 157, Tb m/z 159). As a reference standard RC3 is used in the same well plate. The hepatocyte uptake of the test compound is calculated relative to RC3 (resulting in the unit % of RC3).

SMILES | r1 plasma [1] | r1 water [1] | r1 human plasma [3] [L/mmol/s] | r1 water [3] [L/mmol/s] | Inhibition Rifampicine [4] [% inhibition] | other results
O=C([O-])CN1CCN(CC(=O)[O-])CCN([C@H](CO)[C@H](O)CO)CCN(CC(=O)[O-])CC1.[Gd+3] (racemic) [RC 1, gadobutrol] | 3.6^# L·mmol^−1·s^−1 | 2.9^# L·mmol^−1·s^−1 | – | – | – | –
O=C(CCC(C(=O)[O-])N1CCN(C(CCC(=O)NCC(O)CO)C(=O)[O-])Cc2cccc(n2)CN(C(CCC(=O)NCC(O)CO)C(=O)[O-])CC1)NCC(O)CO.[Gd+3] (stereo not shown) [Compound 11] | – | – | – | – | – | r1 human plasma ([2]; human plasma): 12.8** L·mmol^−1·s^−1; r1 water ([2]; water): 12.2** L·mmol^−1·s^−1
CCOCCOc1ccc(CC2CN(CC(=O)[O-])CCN(CC(=O)[O-])CCN(CC(=O)[O-])CCN2CC(=O)O)cc1.[Gd+3] (stereo not shown) [Compound 22] | – | – | 6.6 | 4.8 | 94 | –
CCOc1ccc(CC2CN(CC(=O)[O-])CCN(CC(=O)[O-])CCN(CC(=O)O)CCN2CC(=O)[O-])cc1.[Gd+3] (stereo not shown) [Compound 23] | – | – | 6.2 | 4.5 | 96 | –
CCCCOc1ccc(CC2CN(CC(=O)[O-])CCN(CC(=O)[O-])CCN(CC(=O)O)CCN2CC(=O)[O-])cc1.[Gd+3] (stereo not shown) [Compound 24] | – | – | 9.8 | 5.3 | 86 | –
CNC[C@H](O)[C@@H](O)[C@H](O)[C@H](O)CO.O=C([O-])CN1CCN(CC(=O)[O-])CCN(CC(=O)O)CCN(CC(=O)[O-])CC1.[Gd+3] [RC 2, gadoterate meglumine] | 5.2^# L·mmol^−1·s^−1 | 3.3^# L·mmol^−1·s^−1 | – | – | – | –
CCOc1ccc(CC(CN(CCN(CC(=O)[O-])CC(=O)[O-])CC(=O)[O-])N(CC(=O)[O-])CC(=O)[O-])cc1.[Gd+3].[Na+].[Na+] (stereo not shown) [RC 3, gadoxetate disodium] | 6.9^# L·mmol^−1·s^−1 | 4.7^# L·mmol^−1·s^−1 | – | – | 97 | –
O=C([O-])CN(CCN(CC(=O)[O-])CC(=O)[O-])CCN(CC(=O)[O-])C(COCc1ccccc1)C(=O)[O-].[Gd+3].[H+].[H+] (stereo not shown) [RC 4, gadobenic acid, reference compound] | 6.3^# L·mmol^−1·s^−1 | 4.0^# L·mmol^−1·s^−1 | – | – | 79 | Uptake rat hepatocytes ([4]; 100 μmol Gd/L, 10 min, 37° C., Gd in lysate by ICP-MS, relative to RC3): 9 % of RC3
